# Laboratory results taken from the NIST ThermoML archive (doi:10.1016/j.jct.2017.02.022).
# ± gives the expanded uncertainty stated by the source.
# Columns and labels:
# [1] = xn = mol fraction of the nth substance listed; conditions: 101.3 kPa, Liquid; for speed of sound: Frequency=3 MHz, Sing-around technique in a fixed-path interferometer; for mass density: Vibrating tube method
# [2] = refractive index (Na D-line) (dimensionless); xn = mol fraction of the nth substance listed; conditions: 101.3 kPa, Liquid, Standard Abbe refractometry
smiles,measurement,setting,value
CCn1cc[n+](C)c1.COS(=O)(=O)[O-] [1-ethyl-3-methylimidazolium methylsulfate] + CCCO,speed of sound,"[1]; 298 K, x1 = 0.059",1247 ± 20 m/s
same,speed of sound,"[1]; 298 K, x1 = 0.228",1377 ± 20 m/s
same,speed of sound,"[1]; 298 K, x1 = 0.375",1487 ± 20 m/s
same,speed of sound,"[1]; 298 K, x1 = 0.524",1588 ± 20 m/s
same,speed of sound,"[1]; 298 K, x1 = 0.72",1681 ± 20 m/s
same,speed of sound,"[1]; 298 K, x1 = 0.874",1730 ± 20 m/s
same,speed of sound,"[1]; 298 K, x1 = 1",1762 ± 20 m/s
same,mass density,"[1]; 298 K, x1 = 0.059",864 ± 3 kg/m3
same,mass density,"[1]; 298 K, x1 = 0.228",1003 ± 3 kg/m3
same,mass density,"[1]; 298 K, x1 = 0.375",1090 ± 2 kg/m3
same,mass density,"[1]; 298 K, x1 = 0.524",1156 ± 2 kg/m3
same,mass density,"[1]; 298 K, x1 = 0.72",1223 ± 2 kg/m3
same,mass density,"[1]; 298 K, x1 = 0.874",1264 ± 2 kg/m3
same,mass density,"[1]; 298 K, x1 = 1",1292 ± 2 kg/m3
same,speed of sound,"[1]; 303 K, x1 = 0.059",1230 ± 20 m/s
same,speed of sound,"[1]; 303 K, x1 = 0.228",1362 ± 20 m/s
same,speed of sound,"[1]; 303 K, x1 = 0.375",1473 ± 20 m/s
same,speed of sound,"[1]; 303 K, x1 = 0.524",1574 ± 20 m/s
same,speed of sound,"[1]; 303 K, x1 = 0.72",1668 ± 20 m/s
same,speed of sound,"[1]; 303 K, x1 = 0.874",1717 ± 20 m/s
same,speed of sound,"[1]; 303 K, x1 = 1",1750 ± 20 m/s
same,mass density,"[1]; 303 K, x1 = 0.059",859 ± 3 kg/m3
same,mass density,"[1]; 303 K, x1 = 0.228",998 ± 3 kg/m3
same,mass density,"[1]; 303 K, x1 = 0.375",1085 ± 2 kg/m3
same,mass density,"[1]; 303 K, x1 = 0.524",1152 ± 2 kg/m3
same,mass density,"[1]; 303 K, x1 = 0.72",1219 ± 2 kg/m3
same,mass density,"[1]; 303 K, x1 = 0.874",1260 ± 2 kg/m3
same,mass density,"[1]; 303 K, x1 = 1",1289 ± 2 kg/m3
same,speed of sound,"[1]; 308 K, x1 = 0.059",1214 ± 20 m/s
same,speed of sound,"[1]; 308 K, x1 = 0.228",1347 ± 20 m/s
same,speed of sound,"[1]; 308 K, x1 = 0.375",1458 ± 20 m/s
same,speed of sound,"[1]; 308 K, x1 = 0.524",1560 ± 20 m/s
same,speed of sound,"[1]; 308 K, x1 = 0.72",1654 ± 20 m/s
same,speed of sound,"[1]; 308 K, x1 = 0.874",1704 ± 20 m/s
same,speed of sound,"[1]; 308 K, x1 = 1",1739 ± 20 m/s
same,mass density,"[1]; 308 K, x1 = 0.059",855 ± 3 kg/m3
same,mass density,"[1]; 308 K, x1 = 0.228",993 ± 3 kg/m3
same,mass density,"[1]; 308 K, x1 = 0.375",1080 ± 2 kg/m3
same,mass density,"[1]; 308 K, x1 = 0.524",1148 ± 2 kg/m3
same,mass density,"[1]; 308 K, x1 = 0.72",1215 ± 2 kg/m3
same,mass density,"[1]; 308 K, x1 = 0.874",1257 ± 2 kg/m3
same,mass density,"[1]; 308 K, x1 = 1",1285 ± 2 kg/m3
same,speed of sound,"[1]; 313 K, x1 = 0.059",1197 ± 20 m/s
same,speed of sound,"[1]; 313 K, x1 = 0.228",1332 ± 20 m/s
same,speed of sound,"[1]; 313 K, x1 = 0.375",1443 ± 20 m/s
same,speed of sound,"[1]; 313 K, x1 = 0.524",1546 ± 20 m/s
same,speed of sound,"[1]; 313 K, x1 = 0.72",1641 ± 20 m/s
same,speed of sound,"[1]; 313 K, x1 = 0.874",1692 ± 20 m/s
same,speed of sound,"[1]; 313 K, x1 = 1",1727 ± 20 m/s
same,mass density,"[1]; 313 K, x1 = 0.059",851 ± 3 kg/m3
same,mass density,"[1]; 313 K, x1 = 0.228",989 ± 3 kg/m3
same,mass density,"[1]; 313 K, x1 = 0.375",1076 ± 2 kg/m3
same,mass density,"[1]; 313 K, x1 = 0.524",1143 ± 2 kg/m3
same,mass density,"[1]; 313 K, x1 = 0.72",1211 ± 2 kg/m3
same,mass density,"[1]; 313 K, x1 = 0.874",1253 ± 2 kg/m3
same,mass density,"[1]; 313 K, x1 = 1",1282 ± 2 kg/m3
same,refractive index,"[2]; 298 K, x1 = 0.059",1.394 ± 0.01
same,refractive index,"[2]; 298 K, x1 = 0.228",1.419 ± 0.01
same,refractive index,"[2]; 298 K, x1 = 0.375",1.435 ± 0.01
same,refractive index,"[2]; 298 K, x1 = 0.524",1.448 ± 0.01
same,refractive index,"[2]; 298 K, x1 = 0.72",1.463 ± 0.01
same,refractive index,"[2]; 298 K, x1 = 0.874",1.473 ± 0.01
same,refractive index,"[2]; 298 K, x1 = 1",1.48 ± 0.01
same,refractive index,"[2]; 303 K, x1 = 0.059",1.393 ± 0.01
same,refractive index,"[2]; 303 K, x1 = 0.228",1.417 ± 0.01
same,refractive index,"[2]; 303 K, x1 = 0.375",1.433 ± 0.01
same,refractive index,"[2]; 303 K, x1 = 0.524",1.446 ± 0.01
same,refractive index,"[2]; 303 K, x1 = 0.72",1.461 ± 0.01
same,refractive index,"[2]; 303 K, x1 = 0.874",1.471 ± 0.01
same,refractive index,"[2]; 303 K, x1 = 1",1.479 ± 0.01
same,refractive index,"[2]; 308 K, x1 = 0.059",1.391 ± 0.01
same,refractive index,"[2]; 308 K, x1 = 0.228",1.415 ± 0.01
same,refractive index,"[2]; 308 K, x1 = 0.375",1.431 ± 0.01
same,refractive index,"[2]; 308 K, x1 = 0.524",1.444 ± 0.01
same,refractive index,"[2]; 308 K, x1 = 0.72",1.459 ± 0.01
same,refractive index,"[2]; 308 K, x1 = 0.874",1.469 ± 0.01
same,refractive index,"[2]; 308 K, x1 = 1",1.478 ± 0.01
same,refractive index,"[2]; 313 K, x1 = 0.059",1.389 ± 0.01
same,refractive index,"[2]; 313 K, x1 = 0.228",1.413 ± 0.01
same,refractive index,"[2]; 313 K, x1 = 0.375",1.428 ± 0.01
same,refractive index,"[2]; 313 K, x1 = 0.524",1.442 ± 0.01
same,refractive index,"[2]; 313 K, x1 = 0.72",1.457 ± 0.01
same,refractive index,"[2]; 313 K, x1 = 0.874",1.468 ± 0.01
same,refractive index,"[2]; 313 K, x1 = 1",1.476 ± 0.01
